Measurements taken from patent US20210115104A1, “AMYLIN ANALOGUES” (Zealand Pharma A/S, priority 2015, published 2021).
*1 amine or outer side, *2 acyl side, *3 side chain or, on linkers, in order; H or OH if unused. Where a SMILES comes first, the peptide text is derived from it. Bridges are numbered along the chain shown (N, C = ends). [ ]: non-standard residue; d: D form. The star is where a group is joined. C20 diacid = O=C(O)CCCCCCCCCCCCCCCCCCC(=O)*; γGlu = O=C(O)[C@H](CCC(=O)[*:2])N[*:1]; Hyp = O=C(O)[C@@H]1C[C@@H](O)CN1; NMeI = CC[C@H](C)[C@H](NC)C(=O)O; Orn = NCCC[C@H](N)C(=O)O; Sar = CNCC(=O)O

Assays:
[1] = Assessment of chemical stability (RP-HPLC normalized purity); format: physicochemical; settings: 7 days, 40° C., Table 1; for Normalized purity after 7 days, 40° C., pH 4: pH 4, 0.2 mg/ml; for Normalized purity after 7 days, 40° C., pH 6: pH 6, 0.2 mg/ml; for Normalized purity after 7 days, 40° C., pH 7.5: pH 7.5, 0.2 mg/ml; for Normalized purity after 7 days, 40° C., pH 9: pH 9, 0.2 mg/ml
Outline: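 Purity after 7 days at 40° C is expressed relative to T=0 (set to 100) for each pH. Samples at 0.2 mg/ml, pH 4, 6, 7.5 or 9, analyzed by RP-HPLC with UV 220 nm on C8 (ammonium formate) or C18 (TFA) gradients.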

[2] = Pharmacokinetic (PK) profiling in rats; format: in vivo, rat; parameters: CI/F (apparent clearance values): unit not given here; settings: Sprague Dawley male rats, single sc 30 nmol/kg
Protocol: Sprague Dawley male rats were given a single subcutaneous (sc) bolus of each peptide to be tested, as specified below. 30 nmol/kg doses of compound were administered. Blood samples were drawn from the tail vein prior to dosing and at 24, 48, 72, 96 and 168 hours after dosing. Blood samples were taken from two rats at each time point, and only 2 blood samples were drawn from each rat, i.e. […] were used for each compound. The rats were euthanized immediately after the last blood sampling by concussion and cervical dislocation.
The dosing vehicle used for each test peptide was a mannitol-containing histidine buffer (pH 7.0). Plasma samples were analyzed after precipitation with ethanol by liquid chromatography mass spectrometry (LC-MS/MS). Mean plasma concentrations were used for calculation of the pharmacokinetic parameters using the non-compartmental approach in Phoenix WinNonlin 6.3.
Plasma terminal elimination half-life (t1/2) was determined as ln(2)/λz, where λz is the magnitude of the slope of the log linear regression of the log concentration versus time profile during the terminal phase. Apparent clearance (CL/F) was determined as dose/AUCinf (sc), where AUCinf is the area under the plasma concentration vs. time curve extrapolated to infinity (AUCinf=AUClast+Clast/λz, where Clast is the last observed plasma concentration).

[3] = Assessment of physical stability (Thioflavin T fibrillation); format: physicochemical; parameters: key: FND = fibrillation not detected; FD = fibrillation detected; settings: 1 mg/ml, 40° C., ThT; for Fibrillation pH 4.0 (Ac): 50 mM acetate buffer pH 4.0, 96 hours; for Fibrillation pH 7.0 (His): 50 mM histidine buffer pH 7.0, 96 hours; for Fibrillation pH 7.0 (Phos.): 50 mM phosphate buffer pH 7.0, 96 hours
Outline: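 Fibrillation lag-time, in hours, taken where regressions of the initial stable phase and the growth phase intersect. ThT (40 μM) fluorescence monitored at 40 °C for 96 h, 10-min reads each preceded by 300 s mixing. Peptide at 1 mg/ml in 50 mM buffers: phosphate or histidine pH 7.0, acetate pH 4.0.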

[4] = target: T1, human calcitonin receptor (hCTR2) (Homo sapiens, UniProt P30988); assay: hCTR2 cAMP assay (AlphaScreen) in COS7 cells; format: cell-based; settings: cAMP induction, COS7 cells expressing hCTR2; Table 1; read-out: hCTR2 EC50
T1 construct: expressed in transfected cells
T1 sequence (P30988 25-474): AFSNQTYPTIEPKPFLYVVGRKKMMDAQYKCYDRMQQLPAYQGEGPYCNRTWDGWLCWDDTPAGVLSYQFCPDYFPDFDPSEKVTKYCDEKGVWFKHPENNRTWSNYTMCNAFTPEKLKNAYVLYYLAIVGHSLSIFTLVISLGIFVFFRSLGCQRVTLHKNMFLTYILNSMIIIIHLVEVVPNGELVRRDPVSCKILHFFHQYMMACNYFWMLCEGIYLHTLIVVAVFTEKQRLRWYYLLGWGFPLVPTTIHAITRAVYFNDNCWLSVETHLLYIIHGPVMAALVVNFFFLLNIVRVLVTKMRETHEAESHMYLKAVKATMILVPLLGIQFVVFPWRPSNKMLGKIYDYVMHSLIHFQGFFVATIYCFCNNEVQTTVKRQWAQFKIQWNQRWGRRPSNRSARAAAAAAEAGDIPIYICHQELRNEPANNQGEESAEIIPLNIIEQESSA
Outline: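 cAMP induction, read by AlphaScreen after lysis, gives EC50 values via 4PL curve fitting. Peptides were applied at rising concentrations for 15 min at 37 °C, with IBMX and 0.1% casein in HEPES-buffered Tyrode pH 7.4, to COS7 cells (no endogenous RAMPs) stably expressing human CTR2.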

[5] = target: T2, human amylin receptor 3 (hAMYR3), hCTR2 co-expressed with hRAMP3 (Homo sapiens, UniProt O60896+P30988); assay: hAMYR3 cAMP assay (AlphaScreen) in COS7 cells; format: cell-based; settings: cAMP induction, COS7 cells expressing hAMYR3; Table 1; read-out: hAMYR3 EC50
T2 construct: expressed in transfected cells
T2 sequence (P30988 25-474): T1 sequence (P30988 25-474)
T2 sequence (O60896 24-148 partner): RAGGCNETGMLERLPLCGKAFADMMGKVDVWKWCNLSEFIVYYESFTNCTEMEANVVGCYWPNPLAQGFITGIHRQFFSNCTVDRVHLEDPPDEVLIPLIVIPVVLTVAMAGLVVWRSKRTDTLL
Outline: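 EC50 values derive from 4PL curve fits of cAMP (AlphaScreen) in lysates of RAMP-naive COS7 cells stably carrying hCTR2 plus hRAMP3. Peptide dilution series were applied for 15 min at 37 °C in pH 7.4 Tyrode buffer containing 100 µM IBMX and 0.1% casein.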

Normalized purity after 7 days, 40° C., pH 4 [1]	Normalized purity after 7 days, 40° C., pH 6 [1]	Normalized purity after 7 days, 40° C., pH 7.5 [1]	Normalized purity after 7 days, 40° C., pH 9 [1]	CI/F (apparent clearance values) [2]	Fibrillation pH 4.0 (Ac) [3]	Fibrillation pH 7.0 (His) [3]	Fibrillation pH 7.0 (Phos.) [3]	EC50 [4] [nM]	EC50 [5] [nM]	Compound
A (A = >90%)	B (B = 70-90%)	B (B = 70-90%)	B (B = 70-90%)	0.0096	FND	FD	FD	0.099		CC[C@H](C)[C@@H](C(=O)N[C@@H](CC(C)C)C(=O)N[C@@H](CO)C(=O)N[C@@H](CO)C(=O)N[C@H](C(=O)N[C@@H](CCC(=O)O)C(=O)N[C@H](C(=O)NCC(=O)N[C@@H](CO)C(=O)N[C@@H](CO)C(=O)N[C@H](C(=O)N1C[C@H](O)C[C@H]1C(N)=O)[C@@H](C)O)C(C)C)[C@@H](C)O)N(C)C(=O)[C@H](C)NC(=O)CN(C)C(=O)[C@H](Cc1ccccc1)NC(=O)[C@H](CO)NC(=O)[C@H](CO)NC(=O)[C@H](CCCNC(=N)N)NC(=O)[C@@H](NC(=O)[C@H](CC(C)C)NC(=O)[C@H](Cc1ccccc1)NC(=O)[C@H](Cc1c[nH]cn1)NC(=O)[C@H](C)NC(=O)[C@H](CC(C)C)NC(=O)[C@H](CCCNC(=N)N)NC(=O)[C@H](CCC(=O)O)NC(=O)[C@@H](NC(=O)[C@H](C)NC(=O)[C@@H]1CSSC[C@H](NC(=O)[C@H](CCCNC(=N)N)NC(=O)CC[C@H](NC(=O)CCCCCCCCCCCCCCCCCCC(=O)O)C(=O)O)C(=O)NCC(=O)N[C@@H]([C@@H](C)O)C(=O)N[C@@H](C)C(=O)N[C@@H]([C@@H](C)O)C(=O)N1)[C@@H](C)O)[C@@H](C)O [Compound 9, [19CD]-isoGlu-R-C( )-GTAT-C( )-ATERLAHFLTRSSF-Gly(Me)-A-Ile(Me)-LSSTEVGSST-Hyp-NH2] ({C20 diacid-γGlu}-RCGTATCATERLAHFLTRSSF[Sar]A[NMeI]LSSTEVGSST[Hyp]-NH2; disulfide 2-7)
A (A = >90%)	B (B = 70-90%)	A (A = >90%)	B (B = 70-90%)	0.0118	FND	FD	FD		0.2	CC[C@H](C)[C@@H](C(=O)N[C@@H](CC(C)C)C(=O)N[C@@H](CO)C(=O)N[C@@H](CO)C(=O)N[C@H](C(=O)N[C@@H](CCC(=O)O)C(=O)N[C@H](C(=O)NCC(=O)N[C@@H](CO)C(=O)N[C@@H](CCCN)C(=O)N[C@H](C(=O)N1C[C@H](O)C[C@H]1C(N)=O)[C@@H](C)O)C(C)C)[C@@H](C)O)N(C)C(=O)[C@H](C)NC(=O)CN(C)C(=O)[C@H](Cc1ccccc1)NC(=O)[C@H](CO)NC(=O)[C@H](CO)NC(=O)[C@H](CCCNC(=N)N)NC(=O)[C@@H](NC(=O)[C@H](CC(C)C)NC(=O)[C@H](Cc1ccccc1)NC(=O)[C@H](Cc1c[nH]cn1)NC(=O)[C@H](C)NC(=O)[C@H](CC(C)C)NC(=O)[C@H](CCCNC(=N)N)NC(=O)[C@H](CCC(=O)O)NC(=O)[C@@H](NC(=O)[C@H](C)NC(=O)[C@@H]1CSSC[C@H](NC(=O)[C@H](CCCNC(=N)N)NC(=O)CC[C@H](NC(=O)CCCCCCCCCCCCCCCCCCC(=O)O)C(=O)O)C(=O)NCC(=O)N[C@@H]([C@@H](C)O)C(=O)N[C@@H](C)C(=O)N[C@@H]([C@@H](C)O)C(=O)N1)[C@@H](C)O)[C@@H](C)O [Compound 11, [19CD]-isoGlu-R-C( )-GTAT-C( )-ATERLAHFLTRSSF-Gly(Me)-A-Ile(Me)-LSSTEVGS-Orn-T-Hyp-NH2] ({C20 diacid-γGlu}-RCGTATCATERLAHFLTRSSF[Sar]A[NMeI]LSSTEVGS[Orn]T[Hyp]-NH2; disulfide 2-7)
A (A = >90%)	A (A = >90%)	A (A = >90%)	A (A = >90%)	0.0106	FND	FD	FD		0.38	CC[C@H](C)[C@@H](C(=O)N[C@@H](CC(C)C)C(=O)N[C@@H](CO)C(=O)N[C@@H](CO)C(=O)N[C@H](C(=O)N[C@@H](CCC(=O)O)C(=O)N[C@H](C(=O)NCC(=O)N[C@@H](CO)C(=O)NCC(=O)N[C@H](C(=O)N1C[C@H](O)C[C@H]1C(N)=O)[C@@H](C)O)C(C)C)[C@@H](C)O)N(C)C(=O)[C@H](C)NC(=O)CN(C)C(=O)[C@H](Cc1ccccc1)NC(=O)[C@H](CO)NC(=O)[C@H](CO)NC(=O)[C@H](CCCNC(=N)N)NC(=O)[C@@H](NC(=O)[C@H](CC(C)C)NC(=O)[C@H](Cc1ccccc1)NC(=O)[C@H](Cc1c[nH]cn1)NC(=O)[C@H](C)NC(=O)[C@H](CC(C)C)NC(=O)[C@H](CCCNC(=N)N)NC(=O)[C@H](CCC(=O)O)NC(=O)[C@@H](NC(=O)[C@H](C)NC(=O)[C@@H]1CSSC[C@H](NC(=O)[C@H](CCCNC(=N)N)NC(=O)CC[C@H](NC(=O)CCCCCCCCCCCCCCCCCCC(=O)O)C(=O)O)C(=O)NCC(=O)N[C@@H]([C@@H](C)O)C(=O)N[C@@H](C)C(=O)N[C@@H]([C@@H](C)O)C(=O)N1)[C@@H](C)O)[C@@H](C)O [Compound 13, [19CD]-isoGlu-R-C( )-GTAT-C( )-ATERLAHFLTRSSF-Gly(Me)-A-Ile(Me)-LSSTEVGSGT-Hyp-NH2] ({C20 diacid-γGlu}-RCGTATCATERLAHFLTRSSF[Sar]A[NMeI]LSSTEVGSGT[Hyp]-NH2; disulfide 2-7)
